# In patent publication US20180110762A1, “Compositions Methods for Treating Chronic Kidney Disease” (Merck Sharp & Dohme Corp, priority 2015, published 2018):
# Legend:
# human podocytes = experiment: Oris cell migration assay, podocyte motility, Compound A alone, vitronectin coated plate; format: cell-based; settings: for % migrated cells vs control cells: 48 h, VN plate
# Protocol: The effects of Compound A on podocyte motility were evaluated using Oris cell migration assay kit in 96-well plates (coated with either vitronectin or fibronectin). The Oris™ Cell Migration Assay is designed with a unique cell seeding stopper or biocompatible gel, detection mask, and stopper tool. These unique plate designs generate highly reproducible results using a microscope, digital imaging system. 7 to 10-day differentiated human podocytes (100 ul of 50,000 cells/ml) were seeded in each well of the ORIS plate. After sitting at room temperature for about 15 minutes, the plate was placed into 37° C. incubator and podocytes were incubated with complete podocyte medium for 24 h. Stoppers from each well (keeping stoppers in 4 wells which were served as time zero control) were carefully removed, medium discarded, and fresh (10% FBS) podocyte medium added to each well. Podocytes were pretreated with Compound A (10 uM to 0.01 nM) for 2 h prior to puromycin animonucleoside (PAN, 30 ug/ml or 15 ug/ml) treatment. Podocytes were then treated with PAN in the presence or absence of Compound A at different concentrations (ranging from 10 uM to 0.01 nM) in 10% FBS medium for 48 h. Podocytes were then fixed with 4% paraformaldehyde in PBS for 30 minutes (adding 50 ul to each well). After discarding the fixative, podocytes were stained with Hoechst 33342 (stock […] working concentration at 5 uM) for 30 min. Podocytes were then washed with PBS three times. Finally, after adding 100 ul of PBS to each well, plate was sealed with a black cover and kept at 4° C. until image analysis. Images of podocyte motility were captured using Acumen eX3 (manufacturer TTP Labtech Ltd. address: Melbourn Science Park, Melbourn, Hertfordshire SG8 6EE, United Kingdom).
# Effect of Compound A (“A”) alone on human podocyte motility was examined using Oris cell migration assay in vitronectin (VN) coated-96-well plate.
# [1] = target: T1, αvβ3 purified from 293 cells overexpressing αvβ3 (Homo sapiens, UniProt P05106+P06756); experiment: SPAV3 binding assay (scintillation proximity)
# T1 construct: made in house; host or cells: 293 cells overexpressing αvβ3
# Source text: • 1. Wheat germ agglutinin Scintillation Proximity Beads (SPA): Amersham • 2. Octylglucopyranoside: Calbiochem • 3. HEPES: Calbiochem • 4. NaCl: Fisher • 5. CaCl2: Fisher • 6. MgCl2: SIGMA • 7. Phenylmethylsulfonylfluoride (PMSF): SIGMA • 8. Optiplate: PACKARD • 9. (S)-3-(4-(2-(6-aminopyridin-2-yl)ethyl)benzamido)-2-((4-(iodo-^125I)phenyl)sulfonamido)propanoic acid as found in WO0046215 (specific activity 500-1000 Ci/mmole) • 10. Test compound • 11. Purified integrin receptor: αvβ3 was purified from 293 cells overexpressing αvβ3 (Duong et al., J. Bone Min. Res., 8:S378, 1993) according to Pytela (Methods in Enzymology, 144:475, 1987) • 12. Binding buffer: 50 mM HEPES, pH 7.8, 100 mM NaCl, 1 mM Ca^2+/Mg^2+, 0.5 mM PMSF • 13. 50 mM octylglucoside in binding buffer: 50-OG buffer
# • 1. Pretreatment of SPA beads: • 500 mg of lyophilized SPA beads were first washed four times with 200 ml of 50-OG buffer and once with 100 ml of binding buffer, and then resuspended in 12.5 ml of binding buffer. • 2. Preparation of SPA beads and receptor mixture • In each assay tube, 2.5 μl (40 mg/ml) of pretreated beads were suspended in 97.5 μl of binding buffer and […] of 50-OG buffer. […] (˜30 ng/μ1) of purified receptor was added to the beads in suspension with stirring at room temperature for 30 minutes. The mixture was then centrifuged at 2,500 rpm in a Beckman GPR Benchtop centrifuge for 10 minutes at 4° C. The pellets were then resuspended in 50 μl of binding buffer and 25 μl of 50-OG buffer. • 3. Reaction • The following were sequentially added into Optiplate in corresponding wells: • (i) Receptor/beads mixture (75 μl) • (ii) 25 μl of each of the following: compound to be tested, binding buffer for total binding or A-8 for non-specific binding (final concentration 1 μM) • (iii) (S)-3-(4-(2-(6-aminopyridin-2-yl)ethyl)benzamido)-2-((4-(iodo-^125I)phenyl)sulfonamido)propanoic acid as found in WO0046215 (specific activity 500-1000 Ci/mmole) in binding buffer (25 μl, final concentration 40 pM) • (iv) Binding buffer (125 μl) • (v) Each plate was sealed with plate sealer from PACKARD and incubated overnight with rocking at 4° C. • 4. Plates were counted using PACKARD TOPCOUNT • 5. % inhibition was calculated as follows: • A=total counts • B=nonspecific counts • C=sample counts
# % inhibition=[{(A−B)−(C−B)}/(A−B)]/(A−B)×100
# T1 sequence (P06756 31-889 limits assumed): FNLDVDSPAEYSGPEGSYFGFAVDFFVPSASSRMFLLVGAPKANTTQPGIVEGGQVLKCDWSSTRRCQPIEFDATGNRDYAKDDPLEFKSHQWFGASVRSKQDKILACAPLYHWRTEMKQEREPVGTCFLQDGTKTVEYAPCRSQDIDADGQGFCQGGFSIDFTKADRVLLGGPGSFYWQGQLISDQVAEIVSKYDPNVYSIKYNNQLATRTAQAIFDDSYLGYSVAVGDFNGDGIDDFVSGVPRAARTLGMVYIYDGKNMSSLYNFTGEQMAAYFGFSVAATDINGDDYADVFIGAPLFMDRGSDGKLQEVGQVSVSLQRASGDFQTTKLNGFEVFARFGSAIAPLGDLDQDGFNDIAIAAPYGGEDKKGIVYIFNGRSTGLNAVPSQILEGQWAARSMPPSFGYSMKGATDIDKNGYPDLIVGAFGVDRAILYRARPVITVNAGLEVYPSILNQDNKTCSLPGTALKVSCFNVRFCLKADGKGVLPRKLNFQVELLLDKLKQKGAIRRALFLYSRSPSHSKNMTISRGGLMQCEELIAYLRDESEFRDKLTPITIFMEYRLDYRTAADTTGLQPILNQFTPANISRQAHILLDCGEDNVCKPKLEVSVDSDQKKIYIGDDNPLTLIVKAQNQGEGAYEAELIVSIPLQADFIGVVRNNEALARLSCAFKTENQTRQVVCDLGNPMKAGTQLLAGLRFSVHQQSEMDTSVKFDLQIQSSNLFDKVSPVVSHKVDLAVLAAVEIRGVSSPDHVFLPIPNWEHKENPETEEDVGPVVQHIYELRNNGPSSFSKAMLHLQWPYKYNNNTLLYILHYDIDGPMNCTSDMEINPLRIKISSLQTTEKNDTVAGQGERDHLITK
# T1 sequence (P06756 891-1048 partner limits assumed): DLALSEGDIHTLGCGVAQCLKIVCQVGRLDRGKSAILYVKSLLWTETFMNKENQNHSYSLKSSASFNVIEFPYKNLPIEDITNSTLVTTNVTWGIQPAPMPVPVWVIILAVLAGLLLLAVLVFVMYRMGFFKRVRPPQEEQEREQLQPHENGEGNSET
# T1 sequence (P05106 27-788): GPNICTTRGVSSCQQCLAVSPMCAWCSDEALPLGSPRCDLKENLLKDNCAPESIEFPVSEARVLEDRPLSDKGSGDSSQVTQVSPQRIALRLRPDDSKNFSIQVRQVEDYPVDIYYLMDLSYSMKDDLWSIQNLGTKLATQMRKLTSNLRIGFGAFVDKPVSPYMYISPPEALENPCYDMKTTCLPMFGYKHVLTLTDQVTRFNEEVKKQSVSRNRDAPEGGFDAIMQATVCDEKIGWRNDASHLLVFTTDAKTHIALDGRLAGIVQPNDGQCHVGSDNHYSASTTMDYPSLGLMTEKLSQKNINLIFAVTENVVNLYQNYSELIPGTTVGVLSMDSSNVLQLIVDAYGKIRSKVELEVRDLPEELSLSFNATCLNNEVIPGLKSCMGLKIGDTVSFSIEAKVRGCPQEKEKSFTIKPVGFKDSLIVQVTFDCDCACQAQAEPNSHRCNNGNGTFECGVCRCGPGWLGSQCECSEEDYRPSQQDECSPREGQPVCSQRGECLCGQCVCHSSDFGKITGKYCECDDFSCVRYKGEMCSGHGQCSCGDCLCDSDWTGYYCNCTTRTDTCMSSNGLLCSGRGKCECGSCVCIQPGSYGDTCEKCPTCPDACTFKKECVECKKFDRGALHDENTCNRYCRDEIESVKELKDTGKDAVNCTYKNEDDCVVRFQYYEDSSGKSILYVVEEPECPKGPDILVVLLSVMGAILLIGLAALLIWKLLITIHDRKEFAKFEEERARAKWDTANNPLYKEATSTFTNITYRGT
structure (smiles),measurement,setting,value
"COc1ccc([C@H](CC(=O)O)N2CCN(CCCc3ccc4c(n3)NCCC4)C2=O)cn1 [Compound A, 3-{2-Oxo-3-[3-(5,6,7,8-tetrahydro-[1,8]naphthyridin-2-yl)-propyl]imidazolidin-1-yl}-3 (S)-(6-methoxy-pyridin-3-yl)-propionic acid]","human podocyte motility, Compound A alone vs vehicle","human podocytes; 48 hours, vitronectin coated plate",significant inhibition of motility in a dose-dependent manner
same,% migrated cells vs control cells,human podocytes; A alone 0.01 nM,39.7%
same,% migrated cells vs control cells,human podocytes; A alone 0.0316 nM,43.7%
same,% migrated cells vs control cells,human podocytes; A alone 0.1 nM,38.8%
same,% migrated cells vs control cells,human podocytes; A alone 0.316 nM,38.6%
same,% migrated cells vs control cells,human podocytes; A alone 1 nM,33.4%
same,% migrated cells vs control cells,human podocytes; A alone 3.16 nM,30.6%
same,% migrated cells vs control cells,human podocytes; A alone 10 nM,19.2%
same,% migrated cells vs control cells,human podocytes; A alone 100 nM,20.5%
same,% migrated cells vs control cells,human podocytes; A alone 1 uM,17.9%
same,% migrated cells vs control cells,human podocytes; A alone 10 uM,17.9%
same,IC50,[1],0.1 nM
